# What was measured:
# [1] = test system: HDM-induced severe asthma model; experiment: House dust mite (HDM)-induced severe asthma model, lung mechanics after methacholine challenge; format: in vivo, female BALB/c mice
# Experimental: (§1) In vivo studies were conducted to test Compound 1 in two models of severe asthma. The first study conducted included an experimental house dust mite (HDM)-induced severe asthma model representative of both Th2/eosinophilic and Th1/Th17/neutrophilic asthma endotypes. The second study conducted included an ovalbumin (OVA) model of acute asthma which more closely represents a Th2/eosinophilic asthma endotype. For each model, fifty-eight female BALB/c mice were randomly and prospectively assigned to six groups, one group of six, one group of twelve, and four groups of ten animals each (see Table 3).
# HDM model: On Day 0, animals in Groups 2-6 were sensitized with 50 μg of HDM in an emulsion with 150 μg of complete Freund's adjuvant (CFA) in a 100 μL volume by subcutaneous injection (SC). Animals in Groups 2-6 were challenged on Day 14 with 50 μg HDM in 40 μL saline via intra-nasal instillation (IN). Group 1 served as the naïve control group. On Days 12, 13, 14, and 15, animals in Groups 2-6 were dosed according to Table 3. […] On Day 16, animals underwent methacholine challenge with lung mechanics measurements using a flexi Vent mechanical ventilator.
# (§2) . Elasticity of the lung (H) shown in FIGS. 6A-B and airway resistance in small airways and alveoli (G) shown in FIGS. 7A-B were measured using a flexiVent mechanical ventilator following challenge with 25 mg/mL methacholine. Group numbers represent the following treatments: 1) naïve; 2) diseased, vehicle treated; 3) diseased, Compound 1 (1 mg/kg); […]; and 6) diseased, positive control. Data are presented as mean±SEM. n=6-12 per group. Statistical significance between groups was determined by one-way ANOVA with Dunnett's multiple comparisons test used to compare all groups to the vehicle-control group. (*:p<0.05; **:p≤0.01).
# [2] = test system: OVA model of acute asthma; experiment: Ovalbumin (OVA) model of acute asthma, lung mechanics after methacholine challenge; format: in vivo, female BALB/c mice
# Experimental: as §1
# OVA model: On Day 0 and Day 7, animals in Groups 2-6 were sensitized with 20 μg of OVA and 1.5 mg Alum in 100 μL volume by intraperitoneal injection (IP). Animals in Groups 2-6 were challenged on Day 13, 14, and 15 with 20 μg OVA in 50 μL PBS via intra-nasal instillation (IN). Group I served as the naïve control group. On Days 12, 13, 14, and 15, animals in Groups 2-6 were dosed according to Table 3. On Day 16, animals underwent methacholine challenge with lung mechanics measurements using a flexiVent mechanical ventilator.
# as §2
# [3] = test system: cytokine production in whole blood stimulated with Dynabeads Human T-Activator CD3/CD28; experiment: Whole blood assay, plasma cytokines after CD3/CD28 stimulation (MSD multiplex); format: cell-based; settings: 0.3 μM, 1 μM, 19 hours at 37° C., n=6
# Experimental: An in vitro study was conducted to investigate the impact of Compound 1 on eosinophil and neutrophil activation and cytokine production that play a role in contributing to eosinophilic and noneosinophilic (neutrophilic) asthma endotypes. Whole blood from healthy volunteers was unstimulated (Unstim) or stimulated with Dynabeads™ Human T-Activator CD3/CD28 in the absence (0) or presence (0.3 μM, 1 μM) of Compound 1 for a total of 19 hours at 37° C. Whole blood was analyzed for cell surface activation marker CD69 gated for eosinophils or neutrophils by flow cytometry (n=12). Plasma was isolated from the whole blood and analyzed for various cytokines using a MSD multiplex platform (n=6). […] Because Compound 1 inhibits the production of Th2/Th1/Th17 cytokines and reduces activation of eosinophils and neutrophils Compound 1 provides an endotype-agnostic means to treat severe asthma.
# FIGS. 2-4 depict the effect of Compound 1 on cytokine levels in a whole blood assay. Plasma was isolated from whole blood samples and analyzed for Th2 cytokines (FIGS. 2A-C: IL-4, IL-5, and IL-13 respectively); Th1/Th17 cytokines (FIGS. 3A-C: IFNγ, TNFα, and IL-22 respectively), and other inflammatory cytokines/chemokines (FIGS. 4A-B: CXCL10 and IL-6 respectively). Each symbol represents a different donor. Values from individual donors are shown, along with mean value for each treatment. Data was plotted in GraphPad PRISM v.9.3.1 and analyzed by a paired t test (*:p<0.05; **:p≤0.01; ***:p≤0.001).
# [4] = molecular target: human JAK1 (a.a. 837-1142) (Homo sapiens, UniProt P23458); experiment: In vitro JAK kinase assay (HTRF), JAK1; format: biochemical; settings: 1 mM ATP
# Experimental: (§3) The catalytic activity of JAK1, JAK2 or JAK3 was assayed by measuring the phosphorylation of a biotinylated peptide. The phosphorylated peptide was detected by homogenous time resolved fluorescence (HTRF). […] Reactions were carried out at room temperature for 1 hour and then stopped with 20 μL 45 mM EDTA, 300 nM SA-APC, 6 nM Eu-Py20 in assay buffer (Perkin Elmer, Boston, MA). Binding to the Europium labeled antibody took place for 40 minutes and HTRF signal was measured on a Fusion plate reader (Perkin Elmer, Boston, MA).
# JAK2 (a.a. 828-1132) = JAK2 (a.a. 828-1132) (Homo sapiens (Human), UniProt O60674); experiment: In vitro JAK kinase assay (HTRF), JAK2 versus JAK1; format: biochemical; settings: IC50 ratio, 1 mM ATP
# Chain of JAK2 (a.a. 828-1132) (O60674 828-1132): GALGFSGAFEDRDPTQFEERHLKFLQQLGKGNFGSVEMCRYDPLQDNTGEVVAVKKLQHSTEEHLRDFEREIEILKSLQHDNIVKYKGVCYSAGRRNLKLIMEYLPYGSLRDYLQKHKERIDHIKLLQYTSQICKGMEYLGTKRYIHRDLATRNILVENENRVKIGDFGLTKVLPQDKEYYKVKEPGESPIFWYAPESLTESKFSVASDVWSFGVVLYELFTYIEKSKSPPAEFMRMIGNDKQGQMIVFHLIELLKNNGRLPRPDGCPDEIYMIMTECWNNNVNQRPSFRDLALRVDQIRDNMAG
# Experimental: as §3
Structure (SMILES),elasticity of the lung (H) ([1]; 25 mg/mL methacholine),resistance in small airways and alveoli (G) ([1]; 25 mg/mL methacholine),"airway measures (Rrs, Ers, G, H), difference between groups ([1]; 10 and 30 mg/kg, Days 12-15, methacholine challenge Day 16)",elasticity of the lung (H) ([2]; 10 mg/kg dose),resistance in small airways and alveoli (G) ([2]; 10 mg/kg dose),elasticity of the lung (H) ([2]; 25 mg/mL methacholine),resistance in small airways and alveoli (G) ([2]; 25 mg/mL methacholine),"Th1 and Th17/Th22 cytokines (IFNγ, TNFα, IL-22) [3]","inflammatory cytokines/chemokines (CXCL10, IL-6) [3]","levels of Th2 cytokines (IL-4, IL-5, IL-13) [3]",IC50 [4],JAK2/JAK1 (JAK2 (a.a. 828-1132))
"Cc1n[nH]c(C)c1-c1cnn(C2(CC#N)CN(c3cc(F)c(C(=O)N[C@@H](C)C(F)(F)F)cc3F)C2)c1 [Compound 1, 4-[3-(cyanomethyl)-3-(3′,5′-dimethyl-1H,1′H-4,4′-bipyrazol-1-yl)azetidin-1-yl]-2,5-difluoro-N-[(1S)-2,2,2-trifluoro-1-methylethyl]benzamide]",decreases,decreases,no significant differences,significant reduction,significant reduction,reversed the elevation,reversed the elevation,reduced Th1 and Th17/Th22 cytokines induced by T-cell activation in a concentration-dependent manner,reduced inflammatory cytokines/chemokines induced by T cell activation in a concentration-dependent manner,reduced the levels of Th2 cytokines induced by T-cell activation in a concentration-dependent manner,,
"C[C@@H](O)c1nc2cnc3ccsc3c2n1[C@H]1CC[C@H](CC#N)OC1 [Compound 5, ((2R,5S)-5-{2-[(1R)-1-hydroxyethyl]-1H-imidazo[4,5-d]thieno[3,2-b]pyridin-1-yl}tetrahydro-2H-pyran-2-yl)acetonitrile]",,,,,,,,,,,< 100 nM,>10

# Reference: patent publication US20240307353A1, “JAK1 PATHWAY INHIBITORS FOR THE TREATMENT OF ASTHMA” (Incyte Corporation, priority 2023, published 2024)
